# Source: patent US20250375436A1, “SERDEXMETHYLPHENIDATE FOR TREATMENT OF IDIOPATHIC HYPERSOMNIA” (ZEVRA THERAPEUTICS, INC., priority 2024, published 2025)
# How the values were obtained:
# adults with IH [1] = assay: Phase 2 IH study: Epworth Sleepiness Scale (ESS); type: in vivo, human; conditions: for ESS, Mean, Titration Baseline: before treatment; for ESS, Mean, Randomization Baseline (Week 5): end of open-label titration; for ESS, Difference in LS Mean (SE): SDX vs placebo, ANCOVA
# Source text: “Epworth Sleepiness Scale” or “ESS,” as it relates to the present technology, means a self-administered questionnaire with 8 questions. Respondents are asked to rate, on a 4-point scale (0-3), their usual chances of dozing off or falling asleep while engaged in eight different activities. Most people engage in those activities at least occasionally, although not necessarily every day. The ESS score (the sum of 8 item scores, 0-3) can range from 0 to 24. The higher the ESS score, the higher that person's average sleep propensity in daily life (ASP), or their ‘daytime sleepiness’. ESS score are generally interpreted as follows: 0-5, lower normal daytime sleepiness; 6-10 higher normal daytime sleepiness; 11-12, mild excessive daytime sleepiness; 13-15, moderate excessive daytime sleepiness; and 16-24, severe excessive daytime sleepiness. [https://epworthsleepinessscale.com/about-theess/]herein incorporated by reference.
# (§1) A double-blind, placebo-controlled, randomized-withdrawal, dose-optimizing, multi-center study investigated the safety and efficacy of serdexmethylphenidate for the treatment of IH. Twenty-two (22) patients completed a 7-week study consisting of two parts. Part 1 of the trial comprised a five-week open-label titration phase during which patients were optimized to one of four total daily doses of serdexmethylphenidate (80, 160, 240, or 320 mg/day). About half the study participants were assigned to take the total daily dose of study drug once per day just before going to bed (QD dosing cohort). The other half was instructed to take half the daily dose of study drug in the morning after awakening and the second half of the daily dose just before going to bed (BID dosing cohort). The titration procedure during the 5-week open label period was conducted as follows: patient treatment was initiated with the lowest total daily dose (80 mg/day) regardless of dosing regimen. At subsequent clinical visits scheduled at intervals of about 1 week each, the dose of the patient was either decreased (except after the first week), maintained, or increased based on tolerability, clinical effect, and adverse events. Depending on the severities of any dose-limiting effects as determined by the clinician, the dose was decreased if possible or the patient was discontinued from the study. If the dose was tolerated by the patient and the clinician determined an opportunity to improve effectiveness, the dose of study drug was increased if possible. Otherwise, the dose was maintained in the subsequent week.
# (§2) Part 2 of the trial comprised a two-week randomized (2:1), double-blind, withdrawal phase, during which two-thirds of the trial participants continued to receive their optimized dose while the remaining one-third received placebo. During the withdrawal phase, patients continued the same dosing regimen (QD or BID) they were assigned to at treatment initiation and adhered to during the titration phase.
# (§3) Secondary efficacy endpoints included Excessive Daytime Sleepiness (EDS) assessed with the Epworth Sleepiness Scale (ESS). Additional secondary endpoints were based on the Idiopathic Hypersomnia Severity Scale (IHSS), daily rating of difficulty of waking up in the morning assessed with the Sleep Inertia Visual Analog Scale (SI-VAS), and rating of brain fog symptoms measured with an exploratory Brain Fog Scale (BFS). Scores on the ESS, IHSS, and BFS were based on a 1-week look-back period.
# The minimally clinically important difference for the ESS scale is 2-3 points. The horizontal dashed line at an ESS score of 10 points marks the boundary between “normal” levels of daytime sleepiness and “excessive” levels of daytime sleepiness. Scores of 10 and less are generally considered “healthy” or “normal” levels of daytime sleepiness whereas scores greater than 10 are considered “excessive”.
# [2] = Comparison of serdexmethylphenidate to other prescription treatments for sleep disorders (key attributes)
# Source text: The data presented in the preceding examples supports the conclusion that serdexmethylphenidate has several advantages over other treatments for IH.
# Most importantly, serdexmethylphenidate improves IH, EDS, SI, and BF symptoms; none of the other treatment options in Table 6 improve symptoms in all of the instant sleep disorder. […] Additionally, serdexmethylphenidate has advantageous dosing amounts and dosing schedules compared to both XYWAV® and LUMRYZ®. For example, XYWAV® requires two nighttime dosages, whereas serdexmethylphenidate reduces sleep disorder symptoms with only a single dose before bedtime.
# adults with IH [3] = assay: Phase 2 IH study: Idiopathic Hypersomnia Severity Scale (IHSS); type: in vivo, human; conditions: for IHSS, Mean, Titration Baseline: before treatment; for IHSS, Mean, Randomization Baseline (Week 5): end of open-label titration; for IHSS, Difference in LS Mean (SE): SDX vs placebo, ANCOVA
# Source text: “Idiopathic Hypersomnia Severity Scale” or “IHSS,” as it relates to the present technology, means a self-administered 14 question survey. Respondents are asked to rate on a 4-point scale (0-3) the severity of IH symptoms such as prolonged and/or unrefreshing daytime and nighttime sleep; impaired daytime alertness, and sleep inertia. The total possible score is 50 if all questions are rated at the maximum score. IHSS scores are generally interpreted as follows: 0-12, mild; 13-25, moderate; 26-38, severe; and 39-50, very severe.
# as §1, §2, §3
# The minimally clinically important difference for the IHSS is 4 points. The horizontal dashed line at an IHSS score of 22 points marks the boundary between “normal” individuals and individuals that may have a sleep disorder with more severe symptoms of idiopathic hypersomnia. Scores of 22 and less are generally considered “healthy” or “normal” whereas scores greater than 22 indicate symptoms of idiopathic hypersomnia.
compound,measurement,setting,value
"COC(=O)[C@H](c1ccccc1)[C@H]1CCCCN1C(=O)OC[n+]1cccc(C(=O)N[C@@H](CO)C(=O)O)c1 [SDX, serdexmethylphenidate]","ESS, Mean Change from Randomization Baseline to Week 7","adults with IH [1]; BID Cohort, SDX (N = 17)",0.1
same,"ESS, Mean, End of Withdrawal Period (Week 7)","adults with IH [1]; BID Cohort, SDX (N = 17)",7.6
same,"ESS, Mean, Titration Baseline","adults with IH [1]; BID Cohort, SDX (N = 17)",16.5
same,"ESS, Mean, Randomization Baseline (Week 5)","adults with IH [1]; BID Cohort, SDX (N = 17)",7.5
same,"ESS, Difference in LS Mean (SE)","adults with IH [1]; BID Cohort, p-value 0.005",−5.6 (1.88)
same,"ESS, Mean Change from Randomization Baseline to Week 7","adults with IH [1]; QD Cohort, SDX (N = 15)",0.0
same,"ESS, Mean, End of Withdrawal Period (Week 7)","adults with IH [1]; QD Cohort, SDX (N = 15)",7.5
same,"ESS, Mean, Titration Baseline","adults with IH [1]; QD Cohort, SDX (N = 15)",16.9
same,"ESS, Mean, Randomization Baseline (Week 5)","adults with IH [1]; QD Cohort, SDX (N = 15)",7.5
same,"ESS, Difference in LS Mean (SE)","adults with IH [1]; QD Cohort, p-value 0.818",0.5 (2.07)
same,Decrease in mean ESS score,"adults with IH [1]; both QD and BID cohorts, end of the 5-week titration period",8-10 points
same,Abnormal Rapid Eye Movement (REM) sleep cycles,[2],does not result in abnormal Rapid Eye Movement (REM) sleep cycles
same,"IH, EDS, SI, and BF symptoms",[2],improves
same,"IHSS, Mean Change from Randomization Baseline to Week 7","adults with IH [3]; BID Cohort, SDX (N = 17)",0.3
same,"IHSS, Mean, End of Withdrawal Period (Week 7)","adults with IH [3]; BID Cohort, SDX (N = 17)",21.6
same,"IHSS, Mean, Titration Baseline","adults with IH [3]; BID Cohort, SDX (N = 17)",34.3
same,"IHSS, Mean, Randomization Baseline (Week 5)","adults with IH [3]; BID Cohort, SDX (N = 17)",21.3
same,"IHSS, Difference in LS Mean (SE)","adults with IH [3]; BID Cohort, p-value 0.104",−9.0 (3.48)
same,"IHSS, Mean Change from Randomization Baseline to Week 7","adults with IH [3]; QD Cohort, SDX (N = 15)",0.7
same,"IHSS, Mean, End of Withdrawal Period (Week 7)","adults with IH [3]; QD Cohort, SDX (N = 15)",19.3
same,"IHSS, Mean, Titration Baseline","adults with IH [3]; QD Cohort, SDX (N = 15)",35.4
same,"IHSS, Mean, Randomization Baseline (Week 5)","adults with IH [3]; QD Cohort, SDX (N = 15)",18.6
same,"IHSS, Difference in LS Mean (SE)","adults with IH [3]; QD Cohort, p-value 0.208",0.9 (3.73)
same,Decrease in mean IHSS score,"adults with IH [3]; all patients, 5-week titration period",12-17 points
same,Change in mean IHSS score,adults with IH [3]; patients continuing treatment during the 2-week withdrawal period,no more than 0.7 points
